The values that follow come from article PMC6508677, “Identification of druggable small molecule antagonists of the Plasmodium falciparum hexose transporter PfHT and assessment of ligand access to the glucose permeation pathway via FLAG-mediated protein engineering” (PLoS ONE, 2019).

As a reminder, the IC50 is the concentration that inhibits the measured activity by half.

The target in assay [1] is T1, hGLUT5 (Homo sapiens, UniProt P22732).
T1 construct: expressed in transfected cells; host or cells: HEK293 (HEK293-FLIP); native hGLUT1 not knocked down in this line
T1 sequence (P22732 1-501): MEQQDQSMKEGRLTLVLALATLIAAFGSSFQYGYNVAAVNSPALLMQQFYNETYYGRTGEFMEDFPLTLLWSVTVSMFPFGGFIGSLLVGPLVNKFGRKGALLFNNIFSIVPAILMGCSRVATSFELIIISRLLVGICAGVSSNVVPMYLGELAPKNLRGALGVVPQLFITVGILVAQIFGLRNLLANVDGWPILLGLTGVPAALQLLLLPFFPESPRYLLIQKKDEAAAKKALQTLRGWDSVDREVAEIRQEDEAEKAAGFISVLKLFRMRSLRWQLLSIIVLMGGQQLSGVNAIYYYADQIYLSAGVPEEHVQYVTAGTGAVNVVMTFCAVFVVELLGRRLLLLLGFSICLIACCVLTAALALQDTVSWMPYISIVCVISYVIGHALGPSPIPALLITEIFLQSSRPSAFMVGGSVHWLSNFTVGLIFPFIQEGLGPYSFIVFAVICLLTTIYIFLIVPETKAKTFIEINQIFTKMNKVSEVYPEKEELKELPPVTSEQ
Kind of assay: [3H]-D-fructose uptake by HEK293 cells overexpressing GLUT5. Type of assay: cell-based. The source says:
Generation of HEK293 cells overexpressing PfHT and human GLUTs 1–4 were described elsewhere. Briefly, HEK293 cells were transfected with pcDNA3.1 FLII12Pglu-7006 (Addgene), containing the fluorescence resonance energy transfer (FRET) glucose sensor (HEK293-FLIP) and PfHT, human GLUT1 (hGLUT1), hGLUT2, hGLUT3, hGLUT4, hGLUT5 or hGLUT8 using Optifect (Life Technologies) according to manufacturer’s specifications. To increase retention of GLUT8 at the plasma membrane, the dileucine sorting signal E^7E^8XXXLL was modified to R^7R^8XXXLL as described in [17]. Stable transfectants were selected for G418 and hygromycin resistance to select for FRET sensor and hexose transporter, respectively. HEK293-FLIP cells were also used to generate cells stably transfected with FLAG-tagged PfHT (FTPfHT). FLAG tag ([…]) followed by a triple glycine linker and a tobacco etch virus (TEV) protease site (ENLYFQS) followed by a triple glycine linker was added to the N-terminus of PfHT via PCR [18] using Phusion Hot Start II High-Fidelity DNA Polymerase (Fisher Scientific). Single clones were selected by comparing their abilities to transport glucose as assayed via FRET and radiolabeled hexose uptake. In all cell lines, except for HEK293 cells overexpressing hGLUT1 and hGLUT5, native hGLUT1 was knocked down using shRNA as described elsewhere. Transcript levels of the individual GLUTs expressed in each cell line are as described in [13, 15] and in S1 Fig.
(§1) Glucose uptake by P. falciparum was performed essentially as described. P. falciparum strain 3D7 was cultured in 100 mm tissue culture dishes (Techno Plastic Products) in a 2% suspension of human erythrocytes and RPMI 1640 medium until reaching > 7.5% parasitemia. Cells were pelleted via centrifugation and resuspended in RPMI 1640 medium. To determine the uptake of radiolabeled glucose into the parasite, parasites were isolated from infected erythrocytes by permeablization with saponin (0.05 w/v), followed by centrifugation, aspiration of supernatant and washing of the pellet 3X with saline solution (135 mM NaCl, 2 mM KCl, 25 mM HEPES, 0.2 mM glucose and 1 mM MgCl2; pH 7.1) to remove cellular debris. WU-1 or DMSO vehicle were added to 100 μl parasites (resuspended in saline) 5 min prior to the addition of 100 μl [^14C]2-DOG (0.2- μCi/ml final concentration). 2-DG uptake was stopped after 2 min by layering the entire reaction over 300 μl of an oil mixture (5:4 mix of dibutyl phthalate / dinonyl phthalate) in Eppendorf tubes and centrifuged at 15,850 × g for 2 mins. The ratio of the estimated intracellular concentration of radiolabel relative to the extracellular concentration were calculated as described. Uptake of radiolabeled hexose into HEK293 cells was measured in glucose-free HBSS as described previously. Briefly, cells were plated at 400,000 cells/well overnight at 37°C in 24-well plates pre-treated with PEI. After 30-min incubation at 37°C in glucose-free HBSS in the presence of vehicle or increasing concentrations of compound, 2-DG uptake was measured in glucose-free HBSS for 4 min at 37°C. Cultures were washed in ice-cold 1X PBS and lysed in 0.1% Triton X-100 in 1X PBS. Radiolabeled hexose uptake was determined by liquid scintillation counting (Ultima Gold, Thermo Fisher) and normalized to total protein per well. Uptake data are plotted as percent uptake relative to vehicle-treated cells. Kinetic analyses were performed using the indicated concentrations of substrate and WU-1, with quenching of uptake after 1 min incubation. Incubation times had been previously determined as being in the linear range of time-dependent radiolabeled hexose uptake (2 min for 2-DG uptake into freed parasites; 2 and 4 min for D-Frc and 2-DG uptake HEK cell lines, respectively). Data were fit by least squares nonlinear regression analysis using GraphPad Prism 6.0 software.

Assay [2] has as its system P. falciparum strain 3D7 freed parasites. Put plainly: 2-DG uptake by isolated freed P. falciparum parasites. Type of assay: cell-based, Plasmodium falciparum. On the procedure:
as §1

Molecules are shown by their SMILES. “And” between values parts separate entries of the source, which are not always exact repeats. Equal values may be shown once. Read-outs that look alike come from different tables or passages of the source.

With `Cc1ccc(S(=O)(=O)CCNC(=O)c2c(-c3c(Cl)cccc3Cl)noc2C)cc1` [WU-1, 3-(2,6-dichlorophenyl)-5-methyl-N-[2-(4-methylbenzenesulfonyl)ethyl]-1,2-oxazole-4-carboxamide], the “IC50 (µM)” value in assay [1] (GLUT5, D-frc Uptake) is listed as “ambiguous”. The “IC50, D-fructose (Frc) uptake” value in assay [1] (GLUT5 cell line) is listed as “n.i”. In addition, the remaining activity at 0.001 µM in assay [1] (HEK293, 2 min, GLUT5, concentration 0.001 µM, read-out: D-frc Uptake AVE) was 100%. Also, the remaining activity at 0.3125 µM in assay [1] (HEK293, 2 min, GLUT5, concentration 0.3125 µM, read-out: D-frc Uptake AVE) came out at 78.1%. The remaining activity at 0.625 µM in assay [1] (HEK293, 2 min, GLUT5, concentration 0.6250 µM, read-out: D-frc Uptake AVE) amounted to 82.9%. The remaining activity at 1.25 µM in assay [1] (HEK293, 2 min, GLUT5, concentration 1.2500 µM, read-out: D-frc Uptake AVE) was found to be 96.7%. Further, the remaining activity at 2.5 µM in assay [1] (HEK293, 2 min, GLUT5, concentration 2.5000 µM, read-out: D-frc Uptake AVE) was determined as 102%. In addition, the remaining activity at 5 µM in assay [1] (HEK293, 2 min, GLUT5, concentration 5 µM, read-out: D-frc Uptake AVE) amounted to 89.8%. Moreover, in assay [1] (HEK293, 2 min, GLUT5, concentration 10 µM, read-out: D-frc Uptake AVE), the remaining activity at 10 µM turned out to be 87.6%. The remaining activity at 20 µM in assay [1] (HEK293, 2 min, GLUT5, concentration 20 µM, read-out: D-frc Uptake AVE) came out at 103%. Besides, in assay [1] (HEK293, 2 min, GLUT5, concentration 40 µM, read-out: D-frc Uptake AVE), the remaining activity at 40 µM stood at 108%. For the same compound, the remaining activity at 80 µM in assay [1] (HEK293, 2 min, GLUT5, concentration 80 µM, read-out: D-frc Uptake AVE) stood at 110%. Besides, the remaining activity at 160 µM in assay [1] (HEK293, 2 min, GLUT5, concentration 160 µM, read-out: D-frc Uptake AVE) came to 111%. In addition, the remaining activity at 225 µM in assay [1] (HEK293, 2 min, GLUT5, concentration 225 µM, read-out: D-frc Uptake AVE) was found to be 125%. Besides, in assay [1] (calculated from IC50s), the “Selectivity Index (PfHT over GLUT5), Frc” value is “n.i”. In addition, the “2-DG uptake by freed parasites (normalised to 100), AVE per experiment” value in assay [2] (0.001 µM WU-1) is 100.00; in assay [2] (8.33 µM WU-1), 54.38 and 56.80 and 54.68; in assay [2] (25 µM WU-1), 40.52 and 37.08 and 35.20; in assay [2] (75 µM WU-1), 20.23 and 31.42 and 24.43; in assay [2] (225 µM WU-1), 17.01 and 18.91 and 19.76. The IC50 was 6.6 µM and 4.5 µM in assay [2] (Expt 1-3, read-out: IC50 for 2-DG uptake by freed parasites, individual experiments); 7.2 µM in assay [2] (Plasmodium falciparum, 3D7, Expt 1-3, read-out: IC50 for 2-DG uptake by freed parasites, individual experiments); 6.1 ± 0.8 µM in assay [2] (Plasmodium falciparum, 3D7, isolated P. falciparum trophozoites, mean, read-out: IC50 for 2-DG uptake by freed parasites).
